{"source": "paper PMC10685318", "about": "“Trans-cyclosulfamidate mannose-configured cyclitol allows isoform-dependent inhibition of GH47 α-D-mannosidases through a bump–hole strategy” (Chemical Science, 2023)", "molecules": {"B1": {"name": "CkGH47 WT (Caulobacter sp. K31) (protein)", "chain": "AAETTPEDWKALAADVRSEFQWAWQGYVAKAWGKDEINPVSGTSRSFFIEGHDLGLSLVEALDTLWIMGLDAEFQAGVDWVKANLSFDVDGNAQVFETNIRLVGGLLSAHLASGDPVLLAKARDLADRLAKAFEASPHGLPWRYVNLRTGAVSDPETNLAEIGTYLSEFGVLSQLTGERKYFDMAKRAMRHTLDRRSKIGLMAANIHAMTGAFTSRNASIDVYADSFYEYLWDAWALFGDEDCKRWAVECVDAQLAHQAKRYDGRLWFPMVDFETGAVTGTAQSELAAYYAGLLGQVGRKAQGDDYLASFTYLQATFGVIPESIDVTTGQPRRKHTGLRPEYPDACLNLWLIDRDPRYRRLAAIHYREMKATSRAAFGYTALKDITTRPMTQDDNCPGYWWSEQMKYYYLLFSDTPRIDYGQLQLSTEANVLRGFRKV"}, "B2": {"name": "CkGH47 L310S (Caulobacter sp. K31; L310S) (protein)", "chain": "B1 chain with L286S"}}, "key": {"[1]": {"molecular_target": "GH47 model enzyme from Caulobacter K31 strain", "details": "cited from earlier work"}, "[2]": {"assay": "Chemical stability of the final compounds on storage", "assay_type": "physicochemical", "details": "storage for a week at room temperature", "description": "1,6-Cis-manno-cyclosulfate, 4, and 1,6-trans-manno-cyclosulfate, 5, were synthesized from mannose-configured cis-diol and trans-diol, respectively (ESI, Scheme S1 ^†)."}, "[3]": {"substrate": "OC[C@H]1O[C@H](O[C@@H]2C(O)O[C@H](CO)[C@@H](O)[C@@H]2O)[C@@H](O)[C@@H](O)[C@@H]1O", "assay": "purified protein, by the assay type", "details": "other: CkGH47 WT, substrate; pH 7.0"}, "[4]": {"substrate": "OC[C@H]1O[C@H](O[C@@H]2C(O)O[C@H](CO)[C@@H](O)[C@@H]2O)[C@@H](O)[C@@H](O)[C@@H]1O", "assay": "purified protein, by the assay type", "assay_type": "biochemical, Caulobacter K31 strain", "details": "other: CkGH47 L310S, substrate; pH 7.0", "method": "Fig. 4 Catalytic activity of CkGH47 WT compared to the CkGH47 L310S mutant. […] (C) The Ki, derived from the gradient (1/Ki), for 6 against CkGH47 L310S.\nTrans-Cyclosulfamidate Cyclitols Males et al.\n2.1 Biochemical and biological methods\nTo obtain Michaelis-Menten kinetics\nLastly, to achieve an inhibition constant, the\nThe gradient of the graph, V0/Vi\nAfter taking each time point, the sample was heat denatured at 95 °C for 5 minutes. The reactions were conducted in triplicate and averaged. […]\nmicroplate spectrophotometer (BioTek). The mannose detection kit (Megazyme) was used to detect […]\ndehydrogenase, was monitored at 340 nm. The absorbance after hexokinase was added to the mixture […]\n2.1.2 Isothermal titration calorimetry\nMicroCal ITC200 calorimeter at 25 °C over 20 injections. The experiment was duplicated to obtain a […]\nthe MicroCal PEAK-ITC analysis software.\n2.2 Crystallographic data collection and refinement of CkGH47\n3′ and the reverse primer was 5′-[…]-3′. Protein production and purification was followed as described previously.[3]\nReference data in the form of a\nRefinement of the model was conducted […]\nconformation was conducted using […]. Details of the data collection and refinement statistics […]\nFigures of the structure were produced by using CCP4mg."}}, "note": "Positions count from the first letter of the chain named. Names may count otherwise.", "data": [{"molecule": "OC[C@H]1NC[C@@H](O)[C@@H](O)[C@@H]1O", "note": "[DMJ, 1-deoxymannojirimycin]", "values": [{"measurement": "Kd", "setting": "[1]", "value": 481, "unit": "nM"}]}, {"molecule": "O=C1N[C@@H]2[C@@H](O)[C@@H](O)[C@H](O)[C@@H](CO)N2C1=O", "note": "[kifunensine]", "values": [{"measurement": "Kd", "setting": "[1]", "value": 39, "unit": "nM"}]}, {"molecule": "O=S1(=O)O[C@@H]2[C@@H](O)[C@@H](O)[C@H](O)[C@@H](CO)[C@H]2O1", "note": "[compound 5, 1,6-trans-manno-cyclosulfate]", "values": [{"measurement": "stability on storage", "setting": "[2]", "value": "compound degradation"}]}, {"molecule": "OC[C@@H]1[C@@H](O)[C@H](O)[C@H](O)c2nccn21", "note": "[mannoimidazole]", "values": [{"measurement": "Kd", "setting": "[1]", "value": 47, "unit": "nM"}]}, {"molecule": "O=S1(=O)O[C@@H]2[C@@H](O)[C@@H](O)[C@H](O)[C@@H](CO)[C@@H]2O1", "note": "[compound 4, 1,6-cis-manno-cyclosulfate]", "values": [{"measurement": "stability on storage", "setting": "[2]", "value": "compound degradation"}]}, {"molecule": "B1", "values": [{"measurement": "Km", "setting": "[3]", "value": "65.7 ± 14.2", "unit": "µM"}]}, {"molecule": "B2", "values": [{"measurement": "Km", "setting": "[4]", "value": "402.8 ± 71.3", "unit": "µM"}]}]}
